Source: the supplement of paper PMC13380429

Legend:
Details in all cases: 72 h
[1] = tested on: Calu-3; experiment: cell viability relative to DMSO; higher = less toxic
[2] = tested on: Vero E6; experiment: as above
[3] = tested on: Caco-2; experiment: as above
[4] = tested on: U2OS; experiment: as above
[5] = tested on: Calu-3; experiment: drug sensitivity score (DSS) for viability; higher = more toxic; extreme values may be limits of the assay
[6] = tested on: Vero E6; experiment: as above
[7] = tested on: Caco-2; experiment: as above
[8] = tested on: U2OS; experiment: as above
[9] = tested on: Calu-3; experiment: relative viability EC50 (midpoint between 100% and the lowest measured viability); higher = less toxic
[10] = tested on: Vero E6; experiment: as above
[11] = tested on: Caco-2; experiment: as above
[12] = tested on: U2OS; experiment: as above
[13] = tested on: HepG2; experiment: cell viability relative to DMSO; higher = less toxic
[14] = tested on: HepG2; experiment: drug sensitivity score (DSS) for viability; higher = more toxic; extreme values may be limits of the assay
[15] = tested on: HepG2; experiment: relative viability EC50 (midpoint between 100% and the lowest measured viability); higher = less toxic

O=C(Nc1ccccc1)[C@]12C[C@H]1/C(=N\O)c1ccccc1O2 [PHCCC]
cell viability ([1]; 1 nM): 102% | cell viability ([1]; 10 nM): 102% | cell viability ([1]; 100 nM): 90.9% | cell viability ([1]; 1000 nM): 96.4% | cell viability ([1]; 10000 nM): 93% | cell viability ([2]; 1 nM): 107% | cell viability ([2]; 10 nM): 91.5% | cell viability ([2]; 100 nM): 102% | cell viability ([2]; 1000 nM): 92.8% | cell viability ([2]; 10000 nM): 103% | cell viability ([3]; 1 nM): 104% | cell viability ([3]; 10 nM): 99% | cell viability ([3]; 100 nM): 93.4% | cell viability ([3]; 1000 nM): 107% | cell viability ([3]; 10000 nM): 94.5% | cell viability ([4]; 1 nM): 97.4% | cell viability ([4]; 10 nM): 99.9% | cell viability ([4]; 100 nM): 95.9% | cell viability ([4]; 1000 nM): 101% | cell viability ([4]; 10000 nM): 104% | drug sensitivity score [5]: 0 | drug sensitivity score [6]: 0 | drug sensitivity score [7]: 0 | drug sensitivity score [8]: 0 | relative viability EC50 [9]: > 10 µM | relative viability EC50 [10]: > 10 µM | relative viability EC50 [11]: > 10 µM | relative viability EC50 [12]: > 10 µM

COCC[n+]1c2c(n(Cc3cnccn3)c1C)C(=O)c1ccccc1C2=O [YM-155]
cell viability ([13]; 1 nM): 103% | cell viability ([13]; 10 nM): 102% | cell viability ([13]; 100 nM): 21% | cell viability ([13]; 1000 nM): 3% | cell viability ([13]; 10000 nM): 0.4% | cell viability ([1]; 1 nM): 83.9% | cell viability ([1]; 10 nM): 34.4% | cell viability ([1]; 100 nM): 3% | cell viability ([1]; 1000 nM): 0.5% | cell viability ([1]; 10000 nM): 0.4% | cell viability ([2]; 1 nM): 90.7% | cell viability ([2]; 10 nM): 97.4% | cell viability ([2]; 100 nM): 87.5% | cell viability ([2]; 1000 nM): 85.2% | cell viability ([2]; 10000 nM): 52% | cell viability ([3]; 1 nM): 81.5% | cell viability ([3]; 10 nM): 27.8% | cell viability ([3]; 100 nM): 3.8% | cell viability ([3]; 1000 nM): 1.7% | cell viability ([3]; 10000 nM): 1.7% | cell viability ([4]; 1 nM): 100% | cell viability ([4]; 10 nM): 44.3% | cell viability ([4]; 100 nM): 1.5% | cell viability ([4]; 1000 nM): -0.2% | cell viability ([4]; 10000 nM): -0.1% | drug sensitivity score [14]: 27 | drug sensitivity score [5]: 39 | drug sensitivity score [6]: 4 | drug sensitivity score [7]: 40.1 | drug sensitivity score [8]: 37.2 | relative viability EC50 [15]: 0.0587 µM | relative viability EC50 [9]: 0.0051 µM | relative viability EC50 [11]: 0.0039 µM | relative viability EC50 [12]: 0.0091 µM

CC(=O)Nc1ccccc1 [acetanilide]
cell viability ([1]; 1 nM): 95% | cell viability ([1]; 10 nM): 94.6% | cell viability ([1]; 100 nM): 103% | cell viability ([1]; 1000 nM): 98.2% | cell viability ([1]; 10000 nM): 99.8% | cell viability ([2]; 1 nM): 109% | cell viability ([2]; 10 nM): 93.7% | cell viability ([2]; 100 nM): 102% | cell viability ([2]; 1000 nM): 103% | cell viability ([2]; 10000 nM): 104% | cell viability ([3]; 1 nM): 98.1% | cell viability ([3]; 10 nM): 101% | cell viability ([3]; 100 nM): 94.5% | cell viability ([3]; 1000 nM): 107% | cell viability ([3]; 10000 nM): 94.4% | cell viability ([4]; 1 nM): 105% | cell viability ([4]; 10 nM): 99% | cell viability ([4]; 100 nM): 103% | cell viability ([4]; 1000 nM): 99.1% | cell viability ([4]; 10000 nM): 98.9% | drug sensitivity score [5]: 0 | drug sensitivity score [6]: 0 | drug sensitivity score [7]: 0 | drug sensitivity score [8]: 0 | relative viability EC50 [9]: > 10 µM | relative viability EC50 [10]: > 10 µM | relative viability EC50 [11]: > 10 µM | relative viability EC50 [12]: > 10 µM

Sc1nc2ccccc2s1 [benzo[d]thiazole-2(3H)-thione]
cell viability ([13]; 1 nM): 99.8% | cell viability ([13]; 10 nM): 101% | cell viability ([13]; 100 nM): 119% | cell viability ([13]; 1000 nM): 101% | cell viability ([13]; 10000 nM): 108% | cell viability ([1]; 1 nM): 76.6% | cell viability ([1]; 10 nM): 91.1% | cell viability ([1]; 100 nM): 96.7% | cell viability ([1]; 1000 nM): 96.3% | cell viability ([1]; 10000 nM): 93.1% | cell viability ([3]; 1 nM): 96.5% | cell viability ([3]; 10 nM): 101% | cell viability ([3]; 100 nM): 97.1% | cell viability ([3]; 1000 nM): 103% | cell viability ([3]; 10000 nM): 94.8% | cell viability ([4]; 1 nM): 100% | cell viability ([4]; 10 nM): 103% | cell viability ([4]; 100 nM): 94.8% | cell viability ([4]; 1000 nM): 102% | cell viability ([4]; 10000 nM): 97.2% | drug sensitivity score [14]: 0 | drug sensitivity score [5]: 0 | drug sensitivity score [7]: 0 | drug sensitivity score [8]: 0 | relative viability EC50 [15]: > 10 µM | relative viability EC50 [9]: > 10 µM | relative viability EC50 [11]: > 10 µM | relative viability EC50 [12]: > 10 µM

N[C@@H](C(=O)N[C@@H]1C(=O)N2C(C(=O)O)=C(Cl)CC[C@H]12)c1ccccc1 [loracarbef]
cell viability ([13]; 1 nM): 100% | cell viability ([13]; 10 nM): 100% | cell viability ([13]; 100 nM): 96.3% | cell viability ([13]; 1000 nM): 92% | cell viability ([13]; 10000 nM): 97.6% | cell viability ([1]; 1 nM): 88.5% | cell viability ([1]; 10 nM): 102% | cell viability ([1]; 100 nM): 96.6% | cell viability ([1]; 1000 nM): 102% | cell viability ([1]; 10000 nM): 99% | cell viability ([3]; 1 nM): 107% | cell viability ([3]; 10 nM): 104% | cell viability ([3]; 100 nM): 95.9% | cell viability ([3]; 1000 nM): 91.5% | cell viability ([3]; 10000 nM): 98.2% | cell viability ([4]; 1 nM): 93.6% | cell viability ([4]; 10 nM): 102% | cell viability ([4]; 100 nM): 95.7% | cell viability ([4]; 1000 nM): 100% | cell viability ([4]; 10000 nM): 101% | drug sensitivity score [14]: 0 | drug sensitivity score [5]: 0 | drug sensitivity score [7]: 0 | drug sensitivity score [8]: 0 | relative viability EC50 [15]: > 10 µM | relative viability EC50 [9]: > 10 µM | relative viability EC50 [11]: > 10 µM | relative viability EC50 [12]: > 10 µM

CCCC[C@H]1C(=O)N(c2ccccc2)N(c2ccc(O)cc2)C1=O [oxyphenbutazone]
cell viability ([13]; 1 nM): 103% | cell viability ([13]; 10 nM): 102% | cell viability ([13]; 100 nM): 105% | cell viability ([13]; 1000 nM): 94.2% | cell viability ([13]; 10000 nM): 7.9% | cell viability ([1]; 1 nM): 91.2% | cell viability ([1]; 10 nM): 104% | cell viability ([1]; 100 nM): 103% | cell viability ([1]; 1000 nM): 110% | cell viability ([1]; 10000 nM): 97.6% | cell viability ([2]; 1 nM): 105% | cell viability ([2]; 10 nM): 107% | cell viability ([2]; 100 nM): 109% | cell viability ([2]; 1000 nM): 101% | cell viability ([2]; 10000 nM): 50.3% | cell viability ([3]; 1 nM): 99.6% | cell viability ([3]; 10 nM): 89.2% | cell viability ([3]; 100 nM): 96.7% | cell viability ([3]; 1000 nM): 94.9% | cell viability ([3]; 10000 nM): 44.2% | cell viability ([4]; 1 nM): 101% | cell viability ([4]; 10 nM): 95.8% | cell viability ([4]; 100 nM): 100% | cell viability ([4]; 1000 nM): 96% | cell viability ([4]; 10000 nM): 9.3% | drug sensitivity score [14]: 6 | drug sensitivity score [5]: 0 | drug sensitivity score [6]: 2.5 | drug sensitivity score [7]: 3.8 | drug sensitivity score [8]: 5.6 | relative viability EC50 [15]: 2.66 µM | relative viability EC50 [9]: > 10 µM | relative viability EC50 [11]: 2.41 µM | relative viability EC50 [12]: 2.83 µM

C[n+]1ccccc1C=NO [pralidoxime]
cell viability ([13]; 1 nM): 106% | cell viability ([13]; 10 nM): 115% | cell viability ([13]; 100 nM): 102% | cell viability ([13]; 1000 nM): 101% | cell viability ([13]; 10000 nM): 89.7% | cell viability ([1]; 1 nM): 96.6% | cell viability ([1]; 10 nM): 93.1% | cell viability ([1]; 100 nM): 93.8% | cell viability ([1]; 1000 nM): 91.3% | cell viability ([1]; 10000 nM): 110% | cell viability ([3]; 1 nM): 103% | cell viability ([3]; 10 nM): 94.5% | cell viability ([3]; 100 nM): 105% | cell viability ([3]; 1000 nM): 99.8% | cell viability ([3]; 10000 nM): 95% | cell viability ([4]; 1 nM): 100% | cell viability ([4]; 10 nM): 97.4% | cell viability ([4]; 100 nM): 103% | cell viability ([4]; 1000 nM): 98.4% | cell viability ([4]; 10000 nM): 103% | drug sensitivity score [14]: 0 | drug sensitivity score [5]: 0 | drug sensitivity score [7]: 0 | drug sensitivity score [8]: 0 | relative viability EC50 [15]: > 10 µM | relative viability EC50 [9]: > 10 µM | relative viability EC50 [11]: > 10 µM | relative viability EC50 [12]: > 10 µM

CCCCOC(=O)c1ccccc1Nc1cccc(C(F)(F)F)c1 [ufenamate]
cell viability ([1]; 1 nM): 105% | cell viability ([1]; 10 nM): 87.3% | cell viability ([1]; 100 nM): 91.8% | cell viability ([1]; 1000 nM): 93.7% | cell viability ([1]; 10000 nM): 94.7% | cell viability ([2]; 1 nM): 110% | cell viability ([2]; 10 nM): 104% | cell viability ([2]; 100 nM): 106% | cell viability ([2]; 1000 nM): 106% | cell viability ([2]; 10000 nM): 98.5% | cell viability ([3]; 1 nM): 96.2% | cell viability ([3]; 10 nM): 102% | cell viability ([3]; 100 nM): 94.4% | cell viability ([3]; 1000 nM): 93.7% | cell viability ([3]; 10000 nM): 98.1% | cell viability ([4]; 1 nM): 91.7% | cell viability ([4]; 10 nM): 98.7% | cell viability ([4]; 100 nM): 92.4% | cell viability ([4]; 1000 nM): 100% | cell viability ([4]; 10000 nM): 108% | drug sensitivity score [5]: 0 | drug sensitivity score [6]: 0 | drug sensitivity score [7]: 0 | drug sensitivity score [8]: 0 | relative viability EC50 [9]: > 10 µM | relative viability EC50 [10]: > 10 µM | relative viability EC50 [11]: > 10 µM | relative viability EC50 [12]: > 10 µM
